One test addresses T1, mouse TAAR1 (Mus musculus, UniProt Q923Y8).
T1 construct: expressed in transfected cells; host or cells: HEK293 (ATCC # CRL-1573), stably transfected with pIRESneo2 expression plasmid
The experiment in a line: TAAR1 radioligand binding with [3H]-rac-2-(1,2,3,4-tetrahydro-1-naphthyl)-2-imidazoline, membranes of stably transfected HEK293 cells. As to conditions: first value of the cell, read-out: Ki (μM) mouse/rat: mouse. The protocol: (§1) For the construction of expression plasmids the coding sequences of human, rat and mouse TAAR 1 were amplified from genomic DNA essentially as described by Lindemann et al.. The Expand High Fidelity PCR System (Roche Diagnostics) was used with 1.5 mM Mg^2+ and purified PCR products were cloned into pCR2.1-TOPO cloning vector (Invitrogen) following the instructions of the manufacturer. PCR products were subcloned into the pIRESneo2 vector (BD Clontech, Palo Alto, Calif.), and expression vectors were sequence verified before introduction in cell lines.
(§2) HEK293 cells (ATCC # CRL-1573) were cultured essentially as described by Lindemann et al. (2005). For the generation of stably transfected cell lines HEK293 cells were transfected with the pIRESneo2 expression plasmids containing the TAAR coding sequences (described above) with Lipofectamine 2000 (Invitrogen) according to the instructions of the manufacturer, and 24 hrs post transfection the culture medium was supplemented with 1 mg/ml G418 (Sigma, Buchs, Switzerland). After a culture period of about 10 d clones were isolated, expanded and tested for responsiveness to trace amines (all compounds purchased from Sigma) with the cAMP Biotrak Enzyme immunoassay (EIA) System (Amersham) following the non-acetylation EIA procedure provided by the manufacturer.
(§3) Cells at confluence were rinsed with ice-cold phosphate buffered saline without Ca^2+ and Mg^2+ containing 10 mM EDTA and pelleted by centrifugation at 1000 rpm for 5 min at 4° C. The pellet was then washed twice with ice-cold phosphate buffered saline and the cell pellet was frozen immediately by immersion in liquid nitrogen and stored until use at −80° C. The cell pellet was then suspended in 20 ml HEPES-NaOH (20 mM), pH 7.4 containing 10 mM EDTA, and homogenized with a Polytron (PT 3000, Kinematica) at 10,000 rpm for 10 s. The homogenate was centrifuged at 48,000×g for 30 min at 4° C. and the pellet resuspended in 20 ml HEPES-NaOH (20 mM), pH 7.4 containing 0.1 mM EDTA (buffer A), and homogenized with a Polytron at 10,000 rpm for 10 s. The homogenate was then centrifuged at 48,000×g for 30 min at 4° C. and the pellet resuspended in 20 ml buffer A, and homogenized with a Polytron at 10,000 rpm for 10 s. Protein concentration was determined by the method of Pierce (Rockford, Ill.). The homogenate was then centrifuged at 48,000×g for 10 min at 4° C., resuspended in HEPES-NaOH (20 mM), pH 7.0 including MgCl2 (10 mM) and […] homogenized with a Polytron at 10,000 rpm for 10 s.
(§4) The binding assay was performed at 4° C. in a final volume of 1 ml, and with an incubation time of 30 min. The radioligand [^3H]-rac-2-(1,2,3,4-tetrahydro-1-naphthyl)-2-imidazoline was used at a concentration equal to the calculated Kd value of 60 nM to give a bound at around 0.1% of the total added radioligand concentration, and a specific binding which represented approximately 70-80% of the total binding. Non-specific binding was defined as the amount of [^3H]-rac-2-(1,2,3,4-tetrahydro-1-naphthyl)-2-imidazoline bound in the presence of the appropriate unlabelled ligand (10 μM). Competing ligands were tested in a wide range of concentrations (10 pM-30 μM). […] Each experiment was performed in duplicate. All incubations were terminated by rapid filtration through UniFilter-96 plates (Packard Instrument Company) and glass filter GF/C, pre-soaked for at least 2 h in polyethylenimine 0.3%, and using a Filtermate 96 Cell Harvester (Packard Instrument Company). The tubes and filters were then washed 3 times with 1 ml aliquots of cold buffer B. Filters were not dried and soaked in Ultima gold (45 μl/well, Packard Instrument Company) and bound radioactivity was counted by a TopCount Microplate Scintillation Counter (Packard Instrument Company).

The target of another test is T2, rat TAAR1 (Rattus norvegicus, UniProt Q923Y9).
T2 construct: expressed in transfected cells; host or cells: HEK293 (ATCC # CRL-1573), stably transfected with pIRESneo2 expression plasmid
T2 sequence (Q923Y9 whole entry): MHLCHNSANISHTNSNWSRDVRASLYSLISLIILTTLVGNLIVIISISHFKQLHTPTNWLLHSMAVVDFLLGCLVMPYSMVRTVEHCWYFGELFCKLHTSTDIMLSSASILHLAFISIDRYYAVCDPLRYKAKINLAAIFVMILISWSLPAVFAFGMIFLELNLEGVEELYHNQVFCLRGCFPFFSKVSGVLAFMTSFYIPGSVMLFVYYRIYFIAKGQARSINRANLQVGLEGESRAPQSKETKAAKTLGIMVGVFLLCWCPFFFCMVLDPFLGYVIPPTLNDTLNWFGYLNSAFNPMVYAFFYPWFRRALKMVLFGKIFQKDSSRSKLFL
Described as above. As to conditions: second value of the cell, read-out: Ki (μM) mouse/rat: rat. The protocol:
as §1, §2, §3, §4

Ki data for 23 molecules are collected here from patent publication US8354441B2, “Oxazoline derivatives” (Hoffmann-La Roche Inc., priority 2009, dated 2013).

T1 sequence (Q923Y8 whole entry): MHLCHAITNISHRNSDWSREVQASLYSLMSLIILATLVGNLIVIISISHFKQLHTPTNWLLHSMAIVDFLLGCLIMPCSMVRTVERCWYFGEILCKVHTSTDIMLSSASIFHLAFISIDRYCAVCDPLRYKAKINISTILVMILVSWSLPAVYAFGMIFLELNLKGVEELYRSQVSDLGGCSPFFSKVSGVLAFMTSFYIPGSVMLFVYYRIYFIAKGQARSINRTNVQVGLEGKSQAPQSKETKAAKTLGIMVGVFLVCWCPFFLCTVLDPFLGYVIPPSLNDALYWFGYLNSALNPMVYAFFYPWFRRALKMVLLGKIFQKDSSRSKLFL

On to `NC1=N[C@@H](CCc2ccc(NC(=O)Nc3ccc(F)cc3)cc2)CO1` [Example 94, 1-{4-[2-((S)-2-Amino-4,5-dihydro-oxazol-4-yl)-ethyl]-phenyl}-3-(4-fluoro-phenyl)-urea], for which the Ki on mouse TAAR1 and at rat TAAR1 was 0.0003 µM throughout.
For `NC1=N[C@@H](CCc2ccc(NC(=O)c3ccc4cccnc4n3)cc2)CO1` [Example 105, [1,8]Naphthyridine-2-carboxylic acid {4-[2-((S)-2-amino-4,5-dihydro-oxazol-4-yl)-ethyl]-phenyl}-amide], the Ki on mouse TAAR1 is 0.0051 µM; at rat TAAR1 it was 0.0011 µM.
For `NC1=N[C@@H](CCc2ccc(NC(=O)c3ccc(Cl)s3)cc2)CO1` [Example 169, (S)-N-(4-(2-(2-Amino-4,5-dihydrooxazol-4-yl)ethyl)phenyl)-5-chlorothiophene-2-carboxamide], the Ki amounted to 0.0005 µM on mouse TAAR1 and 0.0001 µM on rat TAAR1.
Taken in the same sequence, the figures for `NC1=N[C@@H](CCc2ccc(NC(=O)c3ccc4cnccc4n3)cc2)CO1` [Example 104, [1,6]Naphthyridine-2-carboxylic acid {4-[2-((S)-2-amino-4,5-dihydro-oxazol-4-yl)-ethyl]-phenyl}-amide] were 0.0034 µM and 0.0014 µM.
Taken in the same sequence, the figures for `NC1=N[C@@H](CCc2ccc(NC(=O)OCc3ccc(Cl)cc3)cc2)CO1` [Example 146, {4-[2-((S)-2-Amino-4,5-dihydro-oxazol-4-yl)-ethyl]-phenyl}-carbamic acid 4-chloro-benzyl ester] were 0.0001 µM and 0.0003 µM.
Take `NC1=N[C@@H](CCc2ccc(NC(=O)c3ccc(Cl)cn3)cc2)CO1` [Example 33, 5-Chloro-pyridine-2-carboxylic acid {4-[2-((S)-2-amino-4,5-dihydro-oxazol-4-yl)-ethyl]-phenyl}-amide]: the Ki came out at 0.0006 µM on mouse TAAR1 and 0.001 µM at rat TAAR1.
Taken in the same sequence, the figures for `CC1(C(=O)Nc2ccc(CC[C@H]3COC(N)=N3)cc2)CC1` [Example 41, 1-Methyl-cyclopropanecarboxylic acid {4-[2-((S)-2-amino-4,5-dihydro-oxazol-4-yl)-ethyl]-phenyl}-amide] were 0.0091 µM and 0.0094 µM.
Turning to `Cc1cc(C)nc(C(=O)Nc2ccc(CC[C@H]3COC(N)=N3)cc2)c1` [Example 157, (S)-N-(4-(2-(2-Amino-4,5-dihydrooxazol-4-yl)ethyl)phenyl)-4,6-dimethylpicolinamide], the Ki was found to be 0.0019 µM at mouse TAAR1 and 0.0006 µM on rat TAAR1.
In the same order, the values of `NC1=N[C@@H](CCc2ccc(NC(=O)c3nc(Cl)ccc3F)cc2)CO1` [Example 89, 6-Chloro-3-fluoro-pyridine-2-carboxylic acid {4-[2-((S)-2-amino-4,5-dihydro-oxazol-4-yl)-ethyl]-phenyl}-amide] are 0.0044 µM and 0.0007 µM.
In the same order, the values of `NC1=N[C@@H](CCc2ccc(NC(=O)c3ccc(Cl)nc3)cc2)CO1` [Example 31, N-{4-[2-((S)-2-Amino-4,5-dihydro-oxazol-4-yl)-ethyl]-phenyl}-6-chloro-nicotinamide] are 0.0025 µM and 0.0035 µM.
For `CC(C)c1ocnc1C(=O)Nc1ccc(CC[C@H]2COC(N)=N2)cc1` [Example 215, (S)-N-(4-(2-(2-Amino-4,5-dihydrooxazol-4-yl)ethyl)phenyl)-5-isopropyloxazole-4-carboxamide], the Ki at mouse TAAR1 is 0.0012 µM; at rat TAAR1 it was 0.0038 µM.
In the same order, the values of `Cc1cc(C(=O)Nc2ccc(CC[C@H]3COC(N)=N3)cc2)sc1C` [Example 202, (S)-N-(4-(2-(2-Amino-4,5-dihydrooxazol-4-yl)ethyl)phenyl)-4,5-dimethylthiophene-2-carboxamide] are 0.0007 µM and 0.0004 µM.
Taken in the same sequence, the figures for `NC1=N[C@@H](CCc2ccc(NC(=O)c3cc(Cl)nc(Cl)c3)cc2)CO1` [Example 175, (S)-N-(4-(2-(2-Amino-4,5-dihydrooxazol-4-yl)ethyl)phenyl)-2,6-dichloroisonicotinamide] were 0.0008 µM and 0.0009 µM.
For the molecule `NC1=N[C@@H](CCc2ccc(NC(=O)C3CCCCC3)cc2)CO1` [Example 49, Cyclohexanecarboxylic acid {4-[2-((S)-2-amino-4,5-dihydro-oxazol-4-yl)-ethyl]-phenyl}-amide], the Ki on mouse TAAR1 amounted to 0.0024 µM; on rat TAAR1, 0.0036 µM.
For `NC1=N[C@@H](CCc2ccc(NC(=O)c3nc4ccccc4[nH]3)cc2)CO1` [Example 86, 1H-Benzoimidazole-2-carboxylic acid {4-[2-((S)-2-amino-4,5-dihydro-oxazol-4-yl)-ethyl]-phenyl}-amide], the Ki on mouse TAAR1 is 0.0022 µM; on rat TAAR1 it was 0.0006 µM.
Taken in the same sequence, the figures for `Cc1cnc(C(=O)Nc2ccc(CC[C@H]3COC(N)=N3)cc2)cn1` [Example 129, (S)-N-(4-(2-(2-Amino-4,5-dihydrooxazol-4-yl)ethyl)phenyl)-5-methylpyrazine-2-carboxamide] were 0.0039 µM and 0.0033 µM.
Turning to `CC[C@@H](C[C@H]1COC(N)=N1)c1ccc(NC(=O)Nc2ccc(C(F)(F)F)cc2)cc1` [Example 13, 1-{4-[(S)-1-((S)-2-Amino-4,5-dihydro-oxazol-4-ylmethyl)-propyl]-phenyl}-3-(4-trifluoromethyl-phenyl)-urea], the results for the Ki on mouse TAAR1 and at rat TAAR1 were 0.0007 µM and 0.0023 µM, respectively.
For the molecule `CO[C@H](C(=O)Nc1ccc(CC[C@H]2COC(N)=N2)cc1)c1ccccc1` [Example 74, (S)-N-{4-[2-((S)-2-Amino-4,5-dihydro-oxazol-4-yl)-ethyl]-phenyl}-2-methoxy-2-phenyl-acetamide], the Ki at mouse TAAR1 was found to be 0.009 µM; on rat TAAR1, 0.0073 µM.
Taken in the same sequence, the figures for `CCOc1cnc(C(=O)Nc2ccc(CC[C@H]3COC(N)=N3)cc2)cn1` [Example 161, (S)-N-(4-(2-(2-Amino-4,5-dihydrooxazol-4-yl)ethyl)phenyl)-5-ethoxypyrazine-2-carboxamide] were 0.001 µM and 0.0012 µM.
For the molecule `COc1ccc(C(=O)Nc2ccc(CC[C@H]3COC(N)=N3)cc2)cn1` [Example 97, N-{4-[2-((S)-2-Amino-4,5-dihydro-oxazol-4-yl)-ethyl]-phenyl}-6-methoxy-nicotinamide], the Ki is 0.0018 µM at mouse TAAR1 and 0.0015 µM on rat TAAR1.
On to `NC1=N[C@@H](C[C@@H](Oc2ccc(NC(=O)c3ccc(Cl)cc3)cc2)C(F)(F)F)CO1` [Example 150, N-{4-[(R)-1-((S)-2-Amino-4,5-dihydro-oxazol-4-ylmethyl)-2,2,2-trifluoro-ethoxy]-phenyl}-4-chloro-benzamide], for which the Ki at mouse TAAR1 stood at 0.0004 µM; at rat TAAR1, 0.0005 µM.
In the same order, the values of `COc1cc(C(=O)Nc2ccc(CC[C@@H]3N=C(N)O[C@H]3C)cc2)nc(Cl)n1` [Example 219, 2-Chloro-6-methoxy-pyrimidine-4-carboxylic acid {4-[2-((4S,5S)-2-amino-5-methyl-4,5-dihydro-oxazol-4-yl)-ethyl]-phenyl}-amide] are 0.0048 µM and 0.0037 µM.
On to `NC1=N[C@@H](CCc2ccc(NC(=O)c3ccc(F)cc3)cc2)CO1` [Example 16, N-{4-[2-((S)-2-Amino-4,5-dihydro-oxazol-4-yl)-ethyl]-phenyl}-4-fluoro-benzamide], for which the values for the Ki at mouse TAAR1 and on rat TAAR1 were 0.0008 µM and 0.0003 µM, respectively.
